Source: ChEMBL document CHEMBL3526141, “Characterization of human liver enzymes involved in the biotransformation of boceprevir, a hepatitis C virus protease inhibitor” (Drug Metab Dispos, 2011)

Assays:
Liver cytosol [1] = test: (§1) Drug metabolism in human liver cytosol assessed as (1R,2S,5S)-N-((2R,3R)-4-amino-1-cyclobutyl-3-hydroxy-4-oxobutan-2-yl)-3-((S)-2-(3-tert-butylureido)-3,3-dimethylbutanoyl)-6,6-dimethyl-3-azabicyclo[3.1.0]hexane-2-carboxamide formation after 60 mins by LC-MS/MS/FSA method; assay type: ADME, tissue-based; conditions: 1 h
Cytochrome P450 3A4 = Cytochrome P450 3A4 (Homo sapiens, UniProt P08684); test: Drug metabolism assessed as human CYP3A4-mediated compound formation from 5 uM [14C]boceprevir after 120 mins by LC-MS/FSA method relative to total [14C]boceprevir; assay type: ADME; conditions: recombinant enzyme, 2 h, BLD = below limit of detection
Sequence of Cytochrome P450 3A4 (P08684 whole entry): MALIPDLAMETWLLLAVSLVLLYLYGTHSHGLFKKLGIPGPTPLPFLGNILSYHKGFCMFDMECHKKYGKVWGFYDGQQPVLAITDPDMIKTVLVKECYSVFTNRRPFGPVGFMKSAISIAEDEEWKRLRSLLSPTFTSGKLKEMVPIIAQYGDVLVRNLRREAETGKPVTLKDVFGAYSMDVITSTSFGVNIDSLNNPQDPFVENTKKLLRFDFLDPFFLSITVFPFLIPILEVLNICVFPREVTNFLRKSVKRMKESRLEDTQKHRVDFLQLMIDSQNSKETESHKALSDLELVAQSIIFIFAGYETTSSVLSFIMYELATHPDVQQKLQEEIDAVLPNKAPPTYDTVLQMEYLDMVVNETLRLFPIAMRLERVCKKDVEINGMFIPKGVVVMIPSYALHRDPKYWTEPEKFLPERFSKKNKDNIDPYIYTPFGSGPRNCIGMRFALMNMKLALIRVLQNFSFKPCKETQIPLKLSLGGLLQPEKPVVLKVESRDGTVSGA

Liver cytosol [2] = test: Drug metabolism in human liver cytosol assessed as (1R,2S,5S)-N-((2R,3R)-4-amino-1-cyclobutyl-3-hydroxy-4-oxobutan-2-yl)-3-((S)-2-(3-tert-butylureido)-3,3-dimethylbutanoyl)-6,6-dimethyl-3-azabicyclo[3.1.0]hexane-2-carboxamide formation per mg protein after 60 mins by LC-MS/MS/FSA method; assay type: ADME, tissue-based; conditions: 1 h
Liver cytosol [3] = test: as §1, with “cytosol at 20 uM” for “cytosol”, “formation at 20 uM” for “formation”, “mins in presence of AKR inhibitor diazepam” for “mins”; assay type: ADME; conditions: 1 h
[4] = biological target: T1, Aldo-keto reductase family 1 member C3 (Homo sapiens, UniProt P42330); test: Drug metabolism in human recombinant […] HEK293 cells treated with 20 uM boceprevir assessed as 1 mM ibuprofen-mediated inhibition of AKR1C3-mediated metabolite formation after 120 mins in presence of NADPH by LC-MS/MS/FSA method; assay type: ADME, cell-based; set-up: interact cpd dose 1 mM; conditions: hek293, 2 h
T1 sequence (P42330 whole entry): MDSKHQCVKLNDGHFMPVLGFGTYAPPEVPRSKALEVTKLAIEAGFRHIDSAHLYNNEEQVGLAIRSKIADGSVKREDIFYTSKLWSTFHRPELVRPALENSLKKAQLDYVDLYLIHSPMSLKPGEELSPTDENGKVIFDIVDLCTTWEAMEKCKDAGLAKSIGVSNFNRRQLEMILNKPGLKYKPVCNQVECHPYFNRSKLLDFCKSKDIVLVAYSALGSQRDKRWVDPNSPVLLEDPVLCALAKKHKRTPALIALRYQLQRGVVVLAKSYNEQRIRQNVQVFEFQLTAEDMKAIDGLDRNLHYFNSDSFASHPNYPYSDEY

[5] = biological target: T2, Aldo-keto reductase family 1 member C2 (Homo sapiens, UniProt P52895); test: Drug metabolism in human recombinant AKR1C2 expressing HEK293 cells treated with 20 uM boceprevir assessed as 100 uM diazepam-mediated inhibition of AKR1C2-mediated metabolite formation after 120 mins in presence of NADPH by LC-MS/MS/FSA method; assay type: ADME, cell-based; set-up: interact cpd dose 100 uM; conditions: hek293, 2 h
T2 sequence (P52895 whole entry): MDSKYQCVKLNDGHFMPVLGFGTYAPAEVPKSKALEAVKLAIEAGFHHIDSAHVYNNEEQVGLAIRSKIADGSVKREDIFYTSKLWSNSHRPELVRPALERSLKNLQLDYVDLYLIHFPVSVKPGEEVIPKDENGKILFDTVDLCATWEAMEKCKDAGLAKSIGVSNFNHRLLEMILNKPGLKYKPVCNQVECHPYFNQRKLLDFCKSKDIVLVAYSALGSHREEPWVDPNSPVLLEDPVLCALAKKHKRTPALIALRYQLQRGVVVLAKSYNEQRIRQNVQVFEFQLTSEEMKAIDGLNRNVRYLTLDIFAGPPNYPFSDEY

[6] = Drug metabolism in human liver mitochondria treated with 20 uM assessed as compound formation in presence of NADPH generating system by LC-MS/MS/FSA method; assay type: ADME
[7] = biological target: T1, Aldo-keto reductase family 1 member C3; test: (§2) Activity of human recombinant AKR1C3 expressed in HEK293 cells assessed as ratio of Vmax to Km for (1R,2S,5S)-N-((2S,3R)-4-amino-1-cyclobutyl-3-hydroxy-4-oxobutan-2-yl)-3-((S)-2-(3-tert-butylureido)-3,3-dimethylbutanoyl)-6,6-dimethyl-3-azabicyclo[3.1.0]hexane-2-carboxamide formation per mg protein after 120 mins in presence of NADPH by LC-MS/MS/FSA method; assay type: ADME, cell-based; conditions: hek293, 2 h
Liver cytosol [8] = test: (§3) Drug metabolism in human liver cytosol at 20 uM assessed as (1R,2S,5S)-N-((2S,3R)-4-amino-1-cyclobutyl-3-hydroxy-4-oxobutan-2-yl)-3-((S)-2-(3-tert-butylureido)-3,3-dimethylbutanoyl)-6,6-dimethyl-3-azabicyclo[3.1.0]hexane-2-carboxamide formation at 20 uM after 60 mins in presence of AKR inhibitor diazepam by LC-MS/MS/FSA method; assay type: ADME; conditions: 1 h
Liver cytosol [9] = test: (§4) Drug metabolism in human liver cytosol at 20 uM assessed as (1R,2S,5S)-N-((2S,3R)-4-amino-1-cyclobutyl-3-hydroxy-4-oxobutan-2-yl)-3-((S)-2-(3-tert-butylureido)-3,3-dimethylbutanoyl)-6,6-dimethyl-3-azabicyclo[3.1.0]hexane-2-carboxamide formation in presence of BNPP by LC-MS/MS/FSA method; assay type: ADME
Liver cytosol [10] = test: as §3, with “ketoconazole” for “AKR inhibitor diazepam”; assay type: ADME; conditions: 1 h
[11] = as §4, with “S9 fraction” for “cytosol”, “flufenamic acid” for “BNPP”; assay type: ADME, subcellular; conditions: s9, 20 µM
[12] = biological target: T3, Aldo-keto reductase family 1 member C4 (Homo sapiens, UniProt P17516); test: as §2, with “AKR1C4” for “AKR1C3”, “as” for “as ratio of Vmax to Km for”; assay type: ADME, cell-based; conditions: hek293, 2 h
T3 sequence (P17516 whole entry): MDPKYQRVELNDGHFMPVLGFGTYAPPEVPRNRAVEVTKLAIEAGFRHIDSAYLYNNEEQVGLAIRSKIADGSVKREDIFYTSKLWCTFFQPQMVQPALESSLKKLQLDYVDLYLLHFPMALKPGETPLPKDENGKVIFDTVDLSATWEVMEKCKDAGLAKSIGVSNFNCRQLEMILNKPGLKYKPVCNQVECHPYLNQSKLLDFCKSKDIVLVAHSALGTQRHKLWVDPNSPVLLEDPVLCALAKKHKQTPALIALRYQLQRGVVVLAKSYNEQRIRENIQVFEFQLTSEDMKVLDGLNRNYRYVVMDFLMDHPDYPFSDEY

With `CC(C)(C)NC(=O)N[C@H](C(=O)N1C[C@H]2[C@@H]([C@H]1C(=O)N[C@H](CC1CCC1)C(=O)C(N)=O)C2(C)C)C(C)(C)C` the Km (Liver cytosol [1]) was 27.4 µM, the Compound recovery (Cytochrome P450 3A4) was “BLD” and the Vmax (Liver cytosol [2]) was 0.846 pmol/min. The Compound recovery (Liver cytosol [3]) was “metabolite_not_detected”.
For `CC(C)(C)NC(=O)N[C@H](C(=O)N1C[C@H]2[C@@H]([C@H]1C(=O)N[C@@H](CC1CCC1)[C@@H](O)C(N)=O)C2(C)C)C(C)(C)C`, the “inhibition (INH)” value [4] was 55%, the “inhibition (INH)” value [5] was > 89% and the Compound recovery [6] was 7%.
In the case of `CC(C)(C)NC(=O)N[C@H](C(=O)N1C[C@H]2[C@@H]([C@H]1C(=O)NC(CC1CCC1)C(=O)C(N)=O)C2(C)C)C(C)(C)C` (stereo partly drawn) [BOCEPREVIR], the Vmax/Km [7] is reported as 14.67 µL/min, the Compound recovery (Liver cytosol [8]) is reported as “metabolite_not_detected” and the Compound recovery (Liver cytosol [9]) is reported as “metabolite_not_detected”. For the same molecule, the Compound recovery (Liver cytosol [10]) was “metabolite_detected”, the Compound recovery [11] was “metabolite_not_detected” and the Compound recovery [12] was “metabolite_not_detected”.
